One assay deals with HCV genotype 1b replicon in Huh 7 cells. Briefly: HCV replicon assay (luciferase readout, 1b_Huh-Luc/Neo-ET cell line). It counts as cell-based. The conditions noted are these: Hepatitis C virus, Huh-7, 72 h, read-out: Inhibition of HCV genotype 1b, Table 1, 72 h incubation. In outline: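 Inhibition expressed as percent of untreated control luciferase signal and fitted to a Hill-slope equation for EC50, with repeat determinations. Compounds were added in triplicate to Huh 7 cells stably expressing the genotype 1b luciferase replicon, with 72 h exposure.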
(A replicon is a self-replicating genome or part of one, used to study replication in cells.)
Regarding `COC(=O)N[C@H](C(=O)N1CCC[C@H]1c1ncc(-c2ccc([C@H]3CC[C@](C)(c4cnc([C@@H]5CCCN5C(=O)[C@@H](NC(=O)OC)C(C)C)[nH]4)CC3)cc2)[nH]1)C(C)C` [compound 2005], the EC50 is less than 1 nM. The same measure, in the same setting: to `COC(=O)N[C@@H](C(=O)N1CCC[C@H]1c1ncc(-c2ccc([C@H]3CC[C@](C)(c4cnc([C@@H]5CCCN5C(=O)[C@H](NC(=O)OC)c5ccccc5)[nH]4)CC3)cc2)[nH]1)c1ccccc1` [compound 2006] belongs less than 1 nM.

The assay is the same for the next values; noted with them: Hepatitis C virus, Huh-7, 72 h, read-out: Inhibition of HCV genotype 1b, Table 3, 72 h incubation.
In the case of `COC(=O)N[C@@H](C(=O)N1CCC[C@H]1c1ncc(-c2cc(F)c(N3CCC(C)(c4cnc([C@@H]5CCCN5C(=O)[C@H](NC(=O)OC)c5ccccc5)[nH]4)CC3)c(F)c2)[nH]1)c1ccccc1` [compound 2028], the EC50 is less than 1 nM.

Staying with this assay, now noted: Hepatitis C virus, Huh-7, 72 h, read-out: Inhibition of HCV genotype 1b, Table 4, 72 h incubation.
For the compound `COC(=O)N[C@@H](C(=O)N1CCC[C@H]1c1nc2ccc(-c3ccc(-c4ccc5nc([C@@H]6CCCN6C(=O)[C@H](NC(=O)OC)C(C)C)[nH]c5c4)cc3)cc2[nH]1)C(C)C` [compound 2035], the EC50 lay in the range of 10 to 999 nM. The same measure, in the same setting: to `COC(=O)N[C@H](C(=O)N1CCC[C@H]1c1nc2ccc(-c3cnc(-c4ccc5nc([C@@H]6CCCN6C(=O)[C@@H](NC(=O)OC)C(C)C)[nH]c5c4)cn3)cc2[nH]1)C(C)C` [compound 2036] belongs less than 1 nM; to `COC(=O)N[C@H](C(=O)N[C@@H](C)c1nc2ccc(-c3ccc(-c4ccc5nc([C@@H]6CCCN6C(=O)[C@@H](c6ccccc6)N(C)C)[nH]c5c4)cc3)cc2[nH]1)C(C)C` [compound 2037], less than 1 nM; to `COC(=O)N[C@H](C(=O)N1CCC[C@H]1c1nc2ccc(-c3ccc(-c4ccc5nc([C@@H]6CCCN6C(=O)[C@@H](c6ccccc6)N(C)C)[nH]c5c4)cc3)cc2[nH]1)C(C)C` [compound 2038], less than 1 nM. The same measure, in the same setting: to `COC(=O)N[C@H](C(=O)N1CCC[C@H]1c1nc2ccc(-c3ccc(-c4ccc5nc([C@@H]6CCCN6C(=O)[C@@H](NC(=O)OC)C6CCOCC6)[nH]c5c4)cc3)cc2[nH]1)C1CCOCC1` [compound 2039] belongs less than 1 nM. Same read-out and setting: to `COC(=O)N[C@H](C(=O)N1CCC[C@H]1c1nc2ccc(-c3ccc(-c4ccc5nc([C@@H]6CCCN6C(=O)[C@@H](NC(=O)OC)C6CCOCC6)[nH]c5c4)cc3)cc2[nH]1)C(C)C` [compound 2040] belongs less than 1 nM.

Staying with this assay, now noted: Hepatitis C virus, Huh-7, 72 h, read-out: Inhibition of HCV genotype 1b, Table 5, 72 h incubation.
On to `COC(=O)N[C@H](C(=O)N1CCC[C@H]1c1ncc(-c2ccc(C34CCC(c5cnc([C@@H]6CCCN6C(=O)[C@@H](c6ccccc6)N(C)C)[nH]5)(CC3)CC4)cc2)[nH]1)C(C)C` [compound 2051], for which the EC50 is less than 1 nM. Still for that read-out and setting: under `COC(=O)N[C@@H](C(=O)N1CCC[C@H]1c1ncc(-c2ccc(C34CCC(c5cnc([C@@H]6CCCN6C(=O)[C@@H](NC(=O)N6CCOCC6)C(C)C)[nH]5)(CC3)CC4)cc2)[nH]1)c1ccccc1` [compound 2052] stands less than 1 nM; under `COC(=O)N[C@H](C(=O)N1CCC[C@H]1c1ncc(-c2ccc(C34CCC(c5cnc([C@@H]6CCCN6C(=O)[C@@H](NC(=O)OC6CCOCC6)C(C)C)[nH]5)(CC3)CC4)cc2)[nH]1)C(C)C` [compound 2053], 1 to 9.9 nM; under `COC(=O)N[C@H](C(=O)N1CCC[C@H]1c1ncc(-c2ccc(C34CCC(c5cnc([C@@H]6CCCN6C(=O)[C@@H](NC6CCOCC6)C(C)C)[nH]5)(CC3)CC4)cc2)[nH]1)C(C)C` [compound 2054], 1 to 9.9 nM. On the same count and under the same terms, to `COC(=O)N[C@H](C(=O)N1CCC[C@H]1c1ncc(-c2ccc(C34CCC(c5cnc([C@@H]6CCCN6C(=O)[C@H](NC6CCOCC6)C(C)C)[nH]5)(CC3)CC4)cc2)[nH]1)C(C)C` [compound 2055] belongs less than 1 nM.

For the compound `COC(=O)N[C@H](C(=O)N1CCC[C@H]1c1ncc(-c2ccc(C34CCC(c5cnc([C@@H]6CCCN6C(=O)[C@H](C(C)C)N(C)C)[nH]5)(CC3)CC4)cc2)[nH]1)C(C)C` [compound 2056], the EC50 was less than 1 nM. Regarding `COC(=O)N[C@H](C(=O)N1CCC[C@H]1c1ncc(-c2ccc(C34CCC(c5cnc([C@@H]6CCCN6C(=O)[C@@H](C(C)C)N(C)C)[nH]5)(CC3)CC4)cc2)[nH]1)C(C)C` [compound 2057], the EC50 is less than 1 nM. On the same count and under the same terms, under `COC(=O)N[C@H](C(=O)N1CCC[C@H]1c1ncc(-c2ccc(C34CCC(c5cnc([C@@H]6CCCN6C(=O)[C@H](C(C)C)N6CCC(O)CC6)[nH]5)(CC3)CC4)cc2)[nH]1)C(C)C` [compound 2058] stands less than 1 nM. Consider `COC(=O)N[C@H](C(=O)N1CCC[C@H]1c1ncc(-c2ccc(C34CCC(c5cnc([C@@H]6CCCN6C(=O)[C@@H](NC(=O)N6CCC(O)CC6)C(C)C)[nH]5)(CC3)CC4)cc2)[nH]1)C(C)C` [compound 2059], for which the EC50 is less than 1 nM. The same measure, in the same setting: to `COC(=O)N[C@H](C(=O)N1CCC[C@H]1c1ncc(-c2ccc(C34CCC(c5cnc([C@@H]6CCCN6C(=O)[C@@H](NC(=O)N6CCOCC6)C(C)C)[nH]5)(CC3)CC4)cc2)[nH]1)C(C)C` [compound 2060] belongs less than 1 nM.

As for `COC(=O)N[C@@H](C)C(=O)N1CCC[C@H]1c1ncc(C23CCC(c4ccc(-c5cnc([C@@H]6CCCN6C(=O)[C@@H](NC(=O)OC)C(C)C)[nH]5)cc4)(CC2)CC3)[nH]1` [compound 2061], the EC50 was less than 1 nM. The same measure, in the same setting: under `COC(=O)N[C@H](C(=O)N1CCC[C@H]1c1ncc(-c2ccc(C34CCC(c5cnc([C@@H]6CCCN6C(=O)[C@@H](C)NC(=O)OC)[nH]5)(CC3)CC4)cc2)[nH]1)C(C)C` [compound 2062] stands less than 1 nM. For `COC(=O)N[C@@H](C(=O)N1CCC[C@H]1c1ncc(-c2ccc(C34CCC(c5cnc([C@@H]6CCCN6C(=O)[C@H](C(C)C)N(C)C)[nH]5)(CC3)CC4)cc2)[nH]1)c1ccccc1` [compound 2063], the EC50 was less than 1 nM. Still for that read-out and setting: to `COC(=O)N[C@H](C(=O)N1CCC[C@H]1c1ncc(-c2ccc(C34CCC(c5cnc([C@@H]6CCCN6C(=O)[C@H](NC6CCOCC6)c6ccccc6)[nH]5)(CC3)CC4)cc2)[nH]1)C(C)C` [compound 2064] belongs less than 1 nM; to `COC(=O)N[C@@H](CC(C)C)C(=O)N1CCC[C@H]1c1ncc(C23CCC(c4ccc(-c5cnc([C@@H]6CCCN6C(=O)[C@@H](NC(=O)OC)C(C)C)[nH]5)cc4)(CC2)CC3)[nH]1` [compound 2065], less than 1 nM. The same measure, in the same setting: under `CC[C@H](C)[C@H](NC(=O)OC)C(=O)N1CCC[C@H]1c1ncc(C23CCC(c4ccc(-c5cnc([C@@H]6CCCN6C(=O)[C@@H](NC(=O)OC)C(C)C)[nH]5)cc4)(CC2)CC3)[nH]1` [compound 2066] stands less than 1 nM; under `COC(=O)N[C@H](C(=O)N1CCC[C@H]1c1ncc(C23CCC(c4ccc(-c5cnc([C@@H]6CCCN6C(=O)[C@@H](c6ccccc6)N(C)C)[nH]5)cc4)(CC2)CC3)[nH]1)C(C)C` [compound 2067], less than 1 nM. Same read-out and setting: to `COC(=O)N[C@H](C(=O)N1CCC[C@H]1c1ncc(C23CCC(c4ccc(-c5cnc([C@@H]6CCCN6C(=O)[C@H](NC6CCOCC6)c6ccccc6)[nH]5)cc4)(CC2)CC3)[nH]1)C(C)C` [compound 2068] belongs less than 1 nM; to `COC(=O)N[C@H](C(=O)N1CCC[C@H]1c1ncc(C23CCC(c4ccc(-c5cnc([C@@H]6CCCN6C(=O)[C@@H](c6ccccc6)N6CCCCC6)[nH]5)cc4)(CC2)CC3)[nH]1)C(C)C` [compound 2069], less than 1 nM. Take `COC(=O)N[C@H](C(=O)N1CCC[C@H]1c1ncc(C23CCC(c4ccc(-c5cnc([C@@H]6CCCN6C(=O)[C@@H](C(C)C)N(C)C)[nH]5)cc4)(CC2)CC3)[nH]1)C(C)C` [compound 2070]: the EC50 was less than 1 nM.

As to `COC(=O)N[C@H](C(=O)N1CCC[C@H]1c1ncc(C23CCC(c4ccc(-c5cnc([C@@H]6CCCN6C(=O)[C@H](C(C)C)N6CCC(O)CC6)[nH]5)cc4)(CC2)CC3)[nH]1)C(C)C` [compound 2071], the EC50 was less than 1 nM. Still for that read-out and setting: to `COC(=O)N[C@@H](CC(C)C)C(=O)N1CCC[C@H]1c1ncc(-c2ccc(C34CCC(c5cnc([C@@H]6CCCN6C(=O)[C@@H](NC(=O)OC)C(C)C)[nH]5)(CC3)CC4)cc2)[nH]1` [compound 2072] belongs less than 1 nM; to `CC[C@H](C)[C@H](NC(=O)OC)C(=O)N1CCC[C@H]1c1ncc(-c2ccc(C34CCC(c5cnc([C@@H]6CCCN6C(=O)[C@@H](NC(=O)OC)C(C)C)[nH]5)(CC3)CC4)cc2)[nH]1` [compound 2073], less than 1 nM. Still for that read-out and setting: under `COC(=O)N[C@H](C(=O)N[C@@H](C)c1ncc(-c2ccc(C34CCC(c5cnc([C@@H]6CCCN6C(=O)[C@@H](NC(=O)OC)C(C)C)[nH]5)(CC3)CC4)cc2)[nH]1)C(C)C` [compound 2074] stands less than 1 nM. Same read-out and setting: under `COC(=O)N[C@H](C(=O)N1CCC[C@H]1c1ncc(C23CCC(c4ccc(-c5cnc([C@@H]6CCCN6C(=O)[C@H](NC(=O)N6CCCCC6)C(C)C)[nH]5)cc4)(CC2)CC3)[nH]1)C(C)C` [compound 2075] stands less than 1 nM; under `COC(=O)N[C@H](C(=O)N1CCC[C@H]1c1ncc(C23CCC(c4ccc(-c5cnc([C@@H]6CCCN6C(=O)[C@H](NC(=O)N6CCC(O)CC6)C(C)C)[nH]5)cc4)(CC2)CC3)[nH]1)C(C)C` [compound 2076], less than 1 nM; under `COC(=O)N[C@H](C(=O)N1CCC[C@H]1c1ncc(C23CCC(c4ccc(-c5cnc([C@@H]6CCCN6C(=O)[C@H](C(C)C)N(C)C)[nH]5)cc4)(CC2)CC3)[nH]1)C(C)C` [compound 2077], less than 1 nM. On to `COC(=O)N[C@H](C(=O)N[C@@H](C)c1ncc(-c2ccc(C34CCC(c5cnc([C@@H]6CCCN6C(=O)[C@H](C(C)C)N(C)C)[nH]5)(CC3)CC4)cc2)[nH]1)C(C)C` [compound 2078], for which the EC50 is less than 1 nM. `COC(=O)N[C@H](C(=O)N1CCC[C@H]1c1ncc(C23CCC(c4ccc(-c5cnc([C@@H]6CCCN6C(=O)[C@@H](NC(=O)OC6CCOCC6)C(C)C)[nH]5)cc4)(CC2)CC3)[nH]1)C(C)C` [compound 2079]: the EC50 lay in the range of 1 to 9.9 nM.

The values above are taken from patent US9120779B2, “Inhibitors of HCV NS5A” (PRESIDIO PHARMACEUTICALS, INC., priority 2008, dated 2015).
